Experimental data published in US20230113037A1 (Bayer Aktiengesellschaft, priority 2019, published 2023).
Read-outs that look alike come from different tables or passages of the source.

How the values were obtained:
AHR [1] = target: T1, AHR (Mus musculus, UniProt P30561); test: In vitro assay 3: antagonism in mouse cell line (AHR transactivation, firefly luciferase reporter, kynurenic acid prestimulated); type: cell-based; details: 200 μM kynurenic acid, 20 hours, read-out: AHR Antagonism Mouse IC50
T1 sequence (P30561 1-848 P471L/N533S/M589L): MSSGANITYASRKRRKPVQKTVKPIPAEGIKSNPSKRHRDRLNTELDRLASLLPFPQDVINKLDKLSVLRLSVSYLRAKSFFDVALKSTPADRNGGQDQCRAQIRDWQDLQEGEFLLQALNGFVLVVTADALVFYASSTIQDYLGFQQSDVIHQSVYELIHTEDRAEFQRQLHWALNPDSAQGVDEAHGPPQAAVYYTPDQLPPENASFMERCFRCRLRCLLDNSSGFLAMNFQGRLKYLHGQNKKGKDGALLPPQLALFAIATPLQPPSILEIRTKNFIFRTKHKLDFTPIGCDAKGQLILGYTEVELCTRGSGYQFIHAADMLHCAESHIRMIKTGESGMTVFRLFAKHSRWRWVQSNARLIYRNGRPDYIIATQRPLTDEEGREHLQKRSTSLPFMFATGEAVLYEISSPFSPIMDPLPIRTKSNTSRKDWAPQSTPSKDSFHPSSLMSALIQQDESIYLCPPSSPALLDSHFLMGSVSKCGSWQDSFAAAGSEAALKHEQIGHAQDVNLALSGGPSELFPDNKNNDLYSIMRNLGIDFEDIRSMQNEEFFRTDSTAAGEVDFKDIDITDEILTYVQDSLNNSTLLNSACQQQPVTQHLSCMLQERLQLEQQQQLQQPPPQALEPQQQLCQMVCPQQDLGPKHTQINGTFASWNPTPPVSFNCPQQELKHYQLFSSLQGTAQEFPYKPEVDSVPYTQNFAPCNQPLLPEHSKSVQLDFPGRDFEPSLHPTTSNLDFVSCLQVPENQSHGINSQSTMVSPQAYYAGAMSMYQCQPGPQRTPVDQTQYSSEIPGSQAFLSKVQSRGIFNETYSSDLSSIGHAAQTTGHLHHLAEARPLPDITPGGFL
Outline: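 Antagonism read as reduced firefly luciferase signal (SteadyGlo) from a stably transfected AHR/DRE reporter in a mouse line prestimulated with kynurenic acid. Data normalized to controls, the full-inhibition control being cells without kynurenic acid; multiple determinations given as average or median values.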

AHR [2] = target: T2, AHR (Homo sapiens, UniProt P35869); test: In vitro assay 1: antagonism in human cell line (AHR transactivation, firefly luciferase reporter, kynurenic acid prestimulated); type: cell-based; details: AHR Antagonism Human IC50 [M]
T2 construct: U87 MG glioblastoma cells (ATCC #HTB-14) endogenously expressing AHR; endogenous in cells; host or cells: U87 MG glioblastoma cells (ATCC #HTB-14)
T2 sequence (P35869 11-848): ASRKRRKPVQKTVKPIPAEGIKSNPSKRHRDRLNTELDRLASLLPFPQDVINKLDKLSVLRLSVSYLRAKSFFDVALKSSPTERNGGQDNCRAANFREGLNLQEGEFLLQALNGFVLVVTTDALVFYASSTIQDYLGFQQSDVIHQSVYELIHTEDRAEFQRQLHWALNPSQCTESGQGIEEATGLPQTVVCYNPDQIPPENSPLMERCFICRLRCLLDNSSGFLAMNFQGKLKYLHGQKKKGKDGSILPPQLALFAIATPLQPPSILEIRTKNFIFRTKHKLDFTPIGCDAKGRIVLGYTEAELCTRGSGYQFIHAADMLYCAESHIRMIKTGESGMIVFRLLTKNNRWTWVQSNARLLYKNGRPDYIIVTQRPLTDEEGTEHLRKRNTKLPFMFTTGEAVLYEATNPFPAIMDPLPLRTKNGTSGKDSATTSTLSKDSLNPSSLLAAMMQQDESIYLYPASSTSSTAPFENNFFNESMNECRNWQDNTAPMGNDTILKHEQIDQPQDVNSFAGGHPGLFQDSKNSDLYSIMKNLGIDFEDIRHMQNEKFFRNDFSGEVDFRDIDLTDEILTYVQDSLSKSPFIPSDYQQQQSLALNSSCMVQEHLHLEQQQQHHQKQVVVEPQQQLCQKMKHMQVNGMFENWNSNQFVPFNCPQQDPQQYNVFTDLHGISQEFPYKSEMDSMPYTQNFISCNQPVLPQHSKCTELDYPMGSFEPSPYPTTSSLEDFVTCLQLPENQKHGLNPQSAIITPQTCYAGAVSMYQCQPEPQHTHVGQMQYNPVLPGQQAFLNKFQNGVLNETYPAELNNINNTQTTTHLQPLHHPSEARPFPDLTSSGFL
Outline: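 Antagonism is measured against kynurenic acid prestimulation in U87 MG glioblastoma cells carrying stable DRE-luciferase and Renilla reporters. Positive inhibition control: 150 μM kynurenic acid with 5 μM staurosporine. Values are normalized to controls; repeats are averaged or given as medians.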

[3] = Hepa 1c1c7 cells, firefly luciferase reporter

SMILES	IC50 (AHR [1]; mouse Hepa 1c1c7 cells) [µM]	IC50 (AHR [2]) [M]	IC50 (AHR [1]; [3]) [µM]	IC50 (AHR [2]; firefly luciferase reporter) [M]
CS(=O)(=O)c1ccc(-c2nc3c4ccccc4nc(N[C@@H]4CNCCNC4=O)n3n2)cc1 [Example 714, (6R)-6-({2-[4-(methanesulfonyl)phenyl][1,2,4]triazolo[1,5-c]quinazolin-5-yl}amino)-1,4-diazepan-5-one]	0.134	1.64e-07		
C[C@@H]1CN(C(=O)[C@@H](C)Nc2nc3c(Br)cccc3c3nc(-c4cnn(C)c4)nn23)CCN1C [Example 910, (2R)-2-{[7-bromo-2-(1-methyl-1H-pyrazol-4-yl)[1,2,4]triazolo[1,5-c]quinazolin-5-yl]amino}-1-[(3R)-3,4-dimethylpiperazin-1-yl]propan-1-one]			0.0247	2.4e-08
COc1ccc(-c2nc3c4ccc(Br)cc4nc(N[C@@H]4CCCCNC4=O)n3n2)cc1 [Example 229, (3R)-3-{[8-bromo-2-(4-methoxyphenyl)[1,2,4]triazolo[1,5-c]quinazolin-5-yl]amino}azepan-2-one]	0.101	5.82e-08		
COc1ccc(-c2nc3c4cccc(Br)c4nc(N[C@H](C)C(=O)NCCCN(C)C)n3n2)cc1 [Example 809, N^2-[7-bromo-2-(4-methoxyphenyl)[1,2,4]triazolo[1,5-c]quinazolin-5-yl]-N-[3-(dimethylamino)propyl]-D-alaninamide]			0.00905	1.82e-08
COc1cscc1-c1nc2c3ccccc3nc(N[C@H]3CCCCNC3=O)n2n1 [Example 336, (3S)-3-{[2-(4-methoxythiophen-3-yl)[1,2,4]triazolo[1,5-c]quinazolin-5-yl]amino}azepan-2-one]	0.434	8.51e-06		
COc1cccc(-c2nc3c4ccccc4nc(NC4CCCNC4=O)n3n2)c1 (single isomer, unassigned) [Example 119, 3-{[2-(3-methoxyphenyl)[1,2,4]triazolo[1,5-c]quinazolin-5-yl]amino}piperidin-2-one]	0.202	7.8e-07		
CCn1cc(-c2nc3c4cccc(S(C)(=O)=O)c4nc(N[C@@H]4CNCCNC4=O)n3n2)c(C)n1 [Example 945, (6R)-6-{[2-(1-ethyl-3-methyl-1H-pyrazol-4-yl)-7-(methanesulfonyl)[1,2,4]triazolo[1,5-c]quinazolin-5-yl]amino}-1,4-diazepan-5-one]			2.08	4.79e-07
COc1cccc(-c2nc3c4c(C)cccc4nc(N[C@@H]4CNCCNC4=O)n3n2)c1 [Example 289, (6R)-6-{[2-(3-methoxyphenyl)-10-methyl[1,2,4]triazolo[1,5-c]quinazolin-5-yl]amino}-1,4-diazepan-5-one]	0.269	1.12e-06		
Nc1cccc(-c2nc3c4ccccc4nc(N[C@@H]4CNCCNC4=O)n3n2)c1 [Example 413, (6R)-6-{[2-(3-aminophenyl)[1,2,4]triazolo[1,5-c]quinazolin-5-yl]amino}-1,4-diazepan-5-one]	0.0621	8.94e-08		
Cc1noc(-c2nc3c4ccccc4nc(N[C@@H]4CCCCNC4=O)n3n2)n1 [Example 131, (3R)-3-{[2-(3-methyl-1,2,4-oxadiazol-5-yl)[1,2,4]triazolo[1,5-c]quinazolin-5-yl]amino}azepan-2-one]	0.0938	1.79e-07		

More lines, now with the values ahead:

IC50 (AHR [1]; mouse Hepa 1c1c7 cells) [µM]	IC50 (AHR [2]) [M]	IC50 (AHR [1]; [3]) [µM]	IC50 (AHR [2]; firefly luciferase reporter) [M]	SMILES
0.0019	8.31e-10			O=C1NCCCC[C@H]1Nc1nc2c(C(F)(F)F)cccc2c2nc(-c3cnn(CC4CC4)c3)nn12 [Example 742, (3R)-3-({2-[1-(cyclopropylmethyl)-1H-pyrazol-4-yl]-7-(trifluoromethyl)[1,2,4]triazolo[1,5-c]quinazolin-5-yl}amino)azepan-2-one]
0.00193	1.27e-09			COc1ccc(-c2nc3c4cc(C)ccc4nc(N[C@@H]4CCCCNC4=O)n3n2)cc1 [Example 241, (3R)-3-{[2-(4-methoxyphenyl)-9-methyl[1,2,4]triazolo[1,5-c]quinazolin-5-yl]amino}azepan-2-one]
0.000628	3.57e-09			CC[C@@H](Nc1nc2ccccc2c2nc(-c3ccsc3)nn12)C(N)=O [Example 344]
0.00119	6.22e-09			CC[C@@H](Nc1nc2ccccc2c2nc(-c3ccc(Br)cc3OC(F)(F)F)nn12)C(N)=O [Example 697, (2R)-2-({2-[4-bromo-2-(trifluoromethoxy)phenyl][1,2,4]triazolo[1,5-c]quinazolin-5-yl}amino)butanamide]
0.00221	1.8e-09			COc1ccc(-c2nc3c4ccccc4nc(N[C@H](C)C(=O)N4CCN(C)CC4)n3n2)cc1 [Example 777, (2R)-2-{[2-(4-methoxyphenyl)[1,2,4]triazolo[1,5-c]quinazolin-5-yl]amino}-1-(4-methylpiperazin-1-yl)propan-1-one]
0.000346	6.02e-10			CC[C@@H](Nc1nc2ccccc2c2nc(-c3ccc(C#N)cc3)nn12)C(N)=O [Example 386, (2R)-2-{[2-(4-cyanophenyl)[1,2,4]triazolo[1,5-c]quinazolin-5-yl]amino}butanamide]
0.00464	5.68e-10			O=C1NCCCC[C@H]1Nc1nc2ccccc2c2nc(-c3cccnc3)nn12 [Example 125, (3R)-3-{[2-(pyridin-3-yl)[1,2,4]triazolo[1,5-c]quinazolin-5-yl]amino}azepan-2-one]
0.00396	1.41e-09			CCn1cc(-c2nc3c4cccc(C#N)c4nc(N[C@@H]4CCCCNC4=O)n3n2)c(C)n1 [Example 763, 2-(1-ethyl-3-methyl-1H-pyrazol-4-yl)-5-{[(3R)-2-oxoazepan-3-yl]amino}[1,2,4]triazolo[1,5-c]quinazoline-7-carbonitrile]
0.0419	2.87e-08			Cn1ccc(-c2nc3c4ccccc4nc(N[C@@H]4CCCCNC4=O)n3n2)n1 [Example 63, (3R)-3-{[2-(1-methyl-1H-pyrazol-3-yl)[1,2,4]triazolo[1,5-c]quinazolin-5-yl]amino}azepan-2-one]
0.0306	7.95e-07			CS(=O)(=O)c1ccc(-c2nc3c4ccccc4nc(N[C@H]4CCCCNC4=O)n3n2)cc1 [Example 375, (3S)-3-({2-[4-(methanesulfonyl)phenyl][1,2,4]triazolo[1,5-c]quinazolin-5-yl}amino)azepan-2-one]
0.00986	1.06e-08			CCNC(=O)[C@@H](C)Nc1nc2ccccc2c2nc(-c3cccc(OC)c3)nn12 [Example 107, N-ethyl-N^2-[2-(3-methoxyphenyl)[1,2,4]triazolo[1,5-c]quinazolin-5-yl]-D-alaninamide]
0.0143	1.84e-08			COc1ccc(-c2nc3c4cccc(F)c4nc(N[C@@H]4CNCCNC4=O)n3n2)cc1 [Example 426, (6R)-6-{[7-fluoro-2-(4-methoxyphenyl)[1,2,4]triazolo[1,5-c]quinazolin-5-yl]amino}-1,4-diazepan-5-one]
0.0569	1.03e-07			COc1ccc(-c2nc3c4ccccc4nc(N[C@H]4CCCCNC4=O)n3n2)c(OC(F)(F)F)c1 [Example 509, (3S)-3-({2-[4-methoxy-2-(trifluoromethoxy)phenyl][1,2,4]triazolo[1,5-c]quinazolin-5-yl}amino)azepan-2-one]
